{
  "source": "patent US5674875A",
  "about": "“Method of blocking human 5-hydroxytryptamine-2 receptors” (priority 1995, dated 1997)",
  "key": {"[1]": {"biological_target": "T1, cloned human 5-HT2 receptor (Homo sapiens, UniProt P28223)", "T1 construct": "expressed in transfected cells", "T1 sequence (P28223 whole entry)": "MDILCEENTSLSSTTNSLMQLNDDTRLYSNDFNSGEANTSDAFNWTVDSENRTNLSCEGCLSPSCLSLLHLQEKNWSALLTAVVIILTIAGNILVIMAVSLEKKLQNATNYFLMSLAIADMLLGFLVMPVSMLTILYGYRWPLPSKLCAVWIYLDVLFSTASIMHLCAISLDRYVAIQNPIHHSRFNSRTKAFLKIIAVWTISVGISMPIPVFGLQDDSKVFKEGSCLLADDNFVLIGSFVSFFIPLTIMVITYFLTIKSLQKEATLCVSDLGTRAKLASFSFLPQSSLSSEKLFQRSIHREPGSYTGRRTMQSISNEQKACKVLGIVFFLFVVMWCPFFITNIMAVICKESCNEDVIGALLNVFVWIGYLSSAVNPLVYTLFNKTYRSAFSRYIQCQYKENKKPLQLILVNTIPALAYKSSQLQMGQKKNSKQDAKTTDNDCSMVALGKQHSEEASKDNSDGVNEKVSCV", "assay_type": "binding", "conditions": "cells containing cloned human 5-HT2 receptor; performed in triplicate"}, "[2]": {"biological_target": "T2, rat 5-HT2 receptor (Rattus norvegicus, UniProt P14842)", "T2 construct": "from tissue; host or cells: brain tissue of male Sprague-Dawley rats", "T2 sequence (P14842 whole entry)": "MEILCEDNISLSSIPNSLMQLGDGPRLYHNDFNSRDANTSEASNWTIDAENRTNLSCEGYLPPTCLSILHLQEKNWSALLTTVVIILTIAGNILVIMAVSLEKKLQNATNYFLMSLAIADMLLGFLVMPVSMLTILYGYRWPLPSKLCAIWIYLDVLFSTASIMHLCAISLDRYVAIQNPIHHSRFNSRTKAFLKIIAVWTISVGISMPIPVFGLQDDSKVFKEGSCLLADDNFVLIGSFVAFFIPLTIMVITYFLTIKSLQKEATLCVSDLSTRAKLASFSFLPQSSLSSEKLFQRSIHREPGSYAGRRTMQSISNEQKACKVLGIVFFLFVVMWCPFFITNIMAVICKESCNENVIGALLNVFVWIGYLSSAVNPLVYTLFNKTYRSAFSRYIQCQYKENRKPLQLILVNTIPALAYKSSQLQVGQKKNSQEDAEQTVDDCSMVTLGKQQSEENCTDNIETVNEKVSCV", "assay_type": "binding", "conditions": "brain tissue of male Sprague-Dawley rats; performed in triplicate", "source_text": "This is quite surprising in light of the N-substituted ergolines having a much greater affinity for the 5-HT2 receptors in rats compared to the corresponding N-unsubstituted ergolines."}},
  "note": "pIC50: −log10 of the molar value.",
  "data": [
    {"smiles": "CC(C)n1cc2c3c(cccc31)C1CC(C(=O)NC3CC3O)CN(C)C1C2", "note": "(centres unmarked) [drawing 3 NH 2-hydroxycyclopropyl]", "values": [
      {"measurement": "pIC50", "setting": "[1]", "value": 7.56},
      {"measurement": "pIC50", "setting": "[2]", "value": 8.24}
    ]}
  ]
}
